Laboratory results from patent US6949528B1, “Compositions containing lysophosphatidic acids which inhibit apoptosis and uses thereof” (priority 1998, dated 2005).

Experiments:
Type in all cases: cell-based
[1] = system: C3H/10T1/2 cells; experiment: Anti-apoptotic activity assay: serum deprivation of C3H/10T1/2 cells; settings: for Maximum effect relative to 18:1 LPA: Toxic / lowest concentration at which cytotoxic effects were observed (column Concentration for Max Effect): C3H/10T1/2 cells; for lowest concentration at which cytotoxic effects were observed (column Concentration for Max Effect): compounds exhibiting toxicity; for Concentration for Max Effect / Maximum effect relative to 18:1 LPA / Emax: serum-deprived C3H/10T1/2 cells, 24 hours of treatment; for Emax: Mus musculus, read-out: Maximum effect relative to 18:1 LPA
From the text: In order to determine the […] of the claimed invention, the following method of analysis was used. The cell assay is described in detail in U.S. Pat. Nos. 5,637,486, 5,620,888, and 5,681,703, and Tomei et al. (1993) Proc Natl. Aci. 90:853-857. Briefly, mouse fibroblast C3H/10T1/2 cells (clone 8) were obtained from ATCC (Rockville, Md.) and were maintained in exponential growth phase in which the cell cycle is randomly distributed and no cells are arrested in G0, and in quiescence. Exponential growth phase was assured by seeding at 2000 cells per 1 ml (5 ml for 60 mm culture plate) five days prior to the beginning of the experiment. Assays were performed on cells only up to passage 15. At T=0, cultures were transferred to serum-free medium, as an appropriate stimulus, and seed extracts were added. Controls included 10^−7 and 5×10^−8 M 12-O-tetradecanoyl phorbol-13-acetate (TPA) to ensure the responsiveness of the cell culture. The samples were added to serum free medium and sterile filtered prior to addition to the cultures. Assays were performed in triplicate or quadruplicate. Analyses of the cell responses were made between 18 and 28 hours of serum deprivation. Two assays were performed on each cell culture plate consisting of differential cell counts.
1. All non-adherent or loosely adherent cells were removed from the culture dish and counted by appropriate techniques, typically counting by electronic particle counting instrument. These are the apoptotic cells, the serum deprived released cells (SDR), released by the action of cultivation in serum-free medium. Approximately 95% of these released cells are apoptotic as shown by both ultrastructure analysis and DNA fragmentation analysis.
2. The remaining adherent cells (ADH) were exposed to a buffered, typically pH 7.3, balanced salt solution such as a Hanks Balanced Salt Solution without calcium and magnesium salts containing 0.05% trypsin and 0.53 mM ethylene diaminetetraacetic acid (EDTA). Each culture was incubated at either room temperature or 37(C on a rocking platform to ensure uniform distribution of the trypsin reagent over the culture surface. After a standardized period of time, typically 10 minutes, the released cells were removed from each culture dish and measured by the same means as described above, typically electronic particle counting. This ADH cell count is comprised of both trypsin resistant and trypsin sensitive cells as described in U.S. Pat. Nos. 5,637,486, 5,620,888, and 5,681,703.
Anti-apoptotic activity is expressed in the following examples as the calculated concentration of material ((g/ml of media) required to save 50% of the cells released on serum free treatment.
The ability of 18:1-LPA an other LPAs to protect serum-starved cells from apoptotic death was measured using the C3H/10T1/2 cell assay, performed as described in Example 2. The effect of various compounds on the ability of lysophosphatidic acid to protect serum-starved cells from apoptotic death was also measured. Log phase cells were seeded in 60 mm Petri dishes at 175-350 cells per cm2 and maintained in Basal Medium Eagle (BME) supplemented with 10% Heat Inactivated Fetal Bovine Serum (HIFBS). On day 3 the cells were given fresh media. Treatment began on day 5 when the media containing serum was removed and replaced with the LPA mixture to be tested. After 24 hours of treatment, day 6, serum deprived released (SDR) cells (the […] cell population) and adherent (ADH) cells were separated and counted using an electronic cell counter (Coulter Corporation, Hialea, Fla.). […]

[2] = system: rat neonatal cardiomyocytes; experiment: Cardiomyocyte death induced by serum/glucose deprivation; settings: serum/glucose deprivation
Method: Cardiomyocytes were prepared from hearts of day-old Sprague Dawley rats by trypsinization and mechanical disaggregation (Simpson, (1985)) Circ. Res. 56:884-894. The cells were resuspended in MEM, 1×MEM vitamins (Gibco), 5% fetal bovine serum and 50 U/ml penicillin-G and pre-plated for 30 minutes to reduce contamination of non-myocytes. The non-adherent cardiac myocytes were separated and seeded in 2 ml in 35 mm dishes at a density of 3.5×10^5 viable cells per ml. The cells were allowed to adhere for 16-24 hours in a 37° C./5% CO2 humidified incubator.
For serum deprivation, the medium was replaced with fresh serum-free RPMI, whereas serum/glucose deprivation was performed using glucose-free RPMI. The induction of cell death by adriamycin or C2-ceramide was accomplished by the addition of the agent prepared in serum-free RPMI. As a model of ischemia, cultures in serum and glucose free RPMI were placed in an airtight chamber and the latter was continuously perfused with oxygen-free gas overlay of 95% N2/5% CO2 for 8 hours at 37° C. To model reperfusion of the ischemic cells, 10% fetal bovine serum, 2 g/L of glucose were added and the cultures were returned to a normal oxygen gas overlay (37° C./5% CO2) in a humidified incubator for 16 hours.
T investigate effects of LPA, LPA plus other phospholipids, PEG or their mixtures on cell death, various combinations of these components were added to cells in serum free medium at the beginning of cytotoxic treatment.
Because cardiomyocytes are terminally differentiated non-dividing cells, viability was determined by measurement of the decrease in the relative number of adherent cells. […] Adherent cardiomyocytes were collected from culture dishes using 0.25% Trypsin/0.05% EDTA and counted on Coulter Counter ZM and Coulter Channelyzer 256.

[3] = system: C3H/10T1/2 cells; experiment: Effect of proteins on anti-apoptotic activity of soy LPA, C3H/10T1/2 cell assay; settings: for Protein +10 (g/mL Soy LPA, percent cells saved from apoptosis): 1:10 soy-LPA to protein (weight:weight); for Protein +10 (g/mL Soy LPA, percent cells saved from apoptosis) / Protein Alone (0.01%), percent cells saved from apoptosis: 24 hours serum deprivation; for Increase with LPA: difference protein + soy LPA minus protein alone; for Protein Alone (0.01%), percent cells saved from apoptosis: protein without LPA; for enhancement of the anti-apoptotic activity of soy-LPA (more than additive protection): soy-LPA added together with protein
Method: Soy derived LPA (soy-LPA) (Avanti® Polar Lipids, Inc., Alabaster, Ala.) was stored in an organic solution and was dried immediately prior to assay using a Speed Vac (Savant Instruments, Hicksville, N.Y.). Tested proteins were resuspended at 10_mg/mL in a bicarbonate buffered saline/EDTA solution (50_mM NH4HCO3, […] NaCl, 250_(M EDTA) prior to being added to dried soy-LPA at a 1:10_soy-LPA to protein (weight:weight) ratio. The mixture was then sonicated for 5 minutes using a high power 80 Watt sonication bath (Laboratory Supplies Co., Hicksville, N.Y.). Following sonication, concentrated LPA/protein mixtures were left standing for 15 minutes at room temperature prior to dilution in cell culture assay media.
The effect of various proteins on the ability of LPA to protect serum-starved cells from apoptotic death was measured using the C3H/10T1/2 cell assay, performed as described in Example 2, above. Log phase cells were seeded in 60 mm Petri dishes at 175-350 cells per cm^2 and maintained in Basal Medium Eagle (BME) supplemented with 10% fetal calf serum (Hyclone, Logan, Utah). At time zero, serum containing media was replaced with sterile filtered BME containing the LPA/protein mixture to be tested. After 24 hours of treatment, serum deprived release (SDR) cells (the apoptotic cell population) and adherent (ADH) cells were separated and counted using an electronic cell counter (Coulter Corporation, Hialea, Fla.). SDR cells were counted with the lower threshold setting at 6.3_(m and were defined as the apoptotic cells dying in response to cultivation in serum-free-media. Approximately 95% of the SDR cells are confirmed to be apoptotic as previously shown by size, ultrastructure and DNA fragmentation analysis. Adherent cells were removed by treatment with a Hanks' balanced salt solution containing 0.05% trypsin and 0.53_mM EDTA and were counted with the lower threshold setting at 11.01_(m. All samples were tested in triplicate and serum-deprived controls (BME only) were assayed at both the beginning and end of each experiment.

Molecule: CCCCCCCCCCCCCCOCC(O)COP(=O)(OC)OC (racemic) [Compound 3, Dimethyl 3-O-tetradecyl-rac-glycero-1-phosphate]
- Maximum effect relative to 18:1 LPA: Toxic [1]: Toxic
- lowest concentration at which cytotoxic effects were observed (column Concentration for Max Effect) [1]: 30 µM

Molecule: CCCCCCCCCCOCC(O)COP(=O)(O)O (racemic) [Compound 11, 3-O-Decyl-rac-glycero-1-phosphate]
- Emax ([2]; Rattus norvegicus, Cardiomyocyte, read-out: Maximum effect relative to 18:1 LPA in cardiomyocytes): 100%
- Concentration ranges for cardiomyocyte protection [2]: 1 to 10 µM

Molecule: CCCCCCCC/C=C\CCCCCCCCOCC(COP(=O)(OC)OC)OC (racemic) [Compound 23, Dimethyl 1-O-oleyl-2-O-methyl-rac-glycero-1-phosphate]
- Concentration for Max Effect [1]: 30 µM
- Maximum effect relative to 18:1 LPA [1]: 17%

Molecule: CCCCCCCC/C=C\CCCCCCCCOCC(COP(=O)(O)O)OC (racemic) [Compound 24, 3-O-Oleyl-2-O-methyl-rac-glycero-1-phosphate]
- Emax [1]: 100%
- Concentration for Max Effect [1]: 10 µM

Molecule: CCCCCCCC/C=C\CCCCCCCC(=O)OCC(Br)COP(=O)(O)O (racemic) [Compound 37, 3-O-Oleoyl-2-deoxy-2-bromo-rac-glycero-1-phosphate]
- Concentration for Max Effect [1]: 30 µM
- Maximum effect relative to 18:1 LPA [1]: 75%

Molecule: CCCCCCCC/C=C\CCCCCCCC(=O)OCC(COP(=O)(O)O)OC (racemic) [Compound 46, 3-O-Oleoyl-2-O-methyl-rac-glycero-1-phosphate]
- Emax [1]: 75%
- Concentration for Max Effect [1]: 30 µM

Molecule: CCCCCCCC/C=C\CCCCCCCCOCC(COP(O)(=S)OCC(COCCCCCCCC/C=C\CCCCCCCC)OC)OC (racemic) [Compound 80, Bis(3-O-oleyl-2-O-methyl-rac-glyceryl)thiophosphate]
- Concentration for Max Effect [1]: 3 µM
- Maximum effect relative to 18:1 LPA [1]: 100%

Molecule: CCCCCCCCCC(=O)OC[C@@H](O)COP(=O)(O)O [10:0 LPA, reference compound]
- Concentration for Max Effect [1]: 30 µM
- Maximum effect relative to 18:1 LPA [1]: 30%

Molecule: CCCCCCCCCCCCCC(=O)OC[C@@H](O)COP(=O)(O)O [14:0 LPA, reference compound]
- Concentration for Max Effect [1]: 30 µM
- Maximum effect relative to 18:1 LPA [1]: 80%

Molecule: CCCCCCCCCCCCCCCC(=O)OCC(O)COP(=O)(O)O (stereo not shown) [16:0 LPA, Palmitoyl-LPA, reference compound]
- cells protected ([1]; 5 (M, FIG. 5), medium alone 30%): about 42%
- cells protected ([1]; 15 (M, FIG. 5)): 63%
- Concentration for Max Effect [1]: 10 µM
- Maximum effect relative to 18:1 LPA [1]: 80%

Molecule: CCCCCCCCCCCCCCOCC1CO1 (stereo not shown) [Compound 8, 1-O-Tetradecyl-glycidol]
- Maximum effect relative to 18:1 LPA: Toxic [1]: Toxic
- lowest concentration at which cytotoxic effects were observed (column Concentration for Max Effect) [1]: 30 µM

Molecule: CCCCCCCC/C=C\CCCCCCCC(=O)NCCOP(=O)(OC)OC [Compound 59, Dimethyl 2-amino-2-N-oleoyl-ethylphopshate]
- Maximum effect relative to 18:1 LPA: Toxic [1]: Toxic
- lowest concentration at which cytotoxic effects were observed (column Concentration for Max Effect) [1]: 30 µM

Molecule: CCCCCCCC/C=C\CCCCCCCC(=O)NC(C)COP(=O)(O)O (stereo not shown) [Compound 61, 2-Amino-2-N-oleoyl-propyl phosphate]
- Concentration for Max Effect [1]: 30 µM
- Maximum effect relative to 18:1 LPA [1]: 70%

Molecule: CCCCCCCC/C=C\CCCCCCCCCCCCOP(=O)(O)O [Compound 71, Erucyl phosphate]
- Concentration for Max Effect [1]: 100 µM
- Maximum effect relative to 18:1 LPA [1]: 76%

Molecule: CCCCCCCCCCCCCCCCCC(=O)OCC(O)COP(=O)(O)O (stereo not shown) [stearyl-LPA, reference compound]
- cells protected ([1]; 5 (M, FIG. 6)): 63%
- cells protected ([1]; 15 (M, FIG. 6)): 65%

Molecule: Casein
- Protein +10 (g/mL Soy LPA, percent cells saved from apoptosis) [3]: 84.3%
- Increase with LPA [3]: +20.9%
- Protein Alone (0.01%), percent cells saved from apoptosis [3]: 63.4%
- enhancement of the anti-apoptotic activity of soy-LPA (more than additive protection) [3]: to a lesser degree

Molecule: Dimethyl 3-amino-N-oleoyl-propylphosphate [Compound 53]
- Maximum effect relative to 18:1 LPA: Toxic [1]: Toxic
- lowest concentration at which cytotoxic effects were observed (column Concentration for Max Effect) [1]: 100 µM

Molecule: Myelin Basic Protein
- Protein +10 (g/mL Soy LPA, percent cells saved from apoptosis) [3]: 17.0%
- Increase with LPA [3]: +0.2%
- Protein Alone (0.01%), percent cells saved from apoptosis [3]: 16.8%
- enhancement of the anti-apoptotic activity of soy-LPA (more than additive protection) [3]: did not enhance

Molecule: Phosphatidylserine [Phosphatidylserine (PS)]
- toxicity of lipid alone ([1]; PS alone, FIG. 2): slightly toxic

Molecule: lysophosphatidyl serine [LPS, reference compound]
- activity relative to 18:1-LPA ([1]; on a molar basis, FIG. 4): approximately 50%

Molecule: phosphatidyl choline [PC]
- cells survived ([1]; lipids alone added to culture medium, FIG. 3): about 25%

B1: Myoglobin: myoglobin from horse heart (protein, UniProt P68082 2-154, looked up)
Myoglobin: GLSDGEWQQVLNVWGKVEADIAGHGQEVLIRLFTGHPETLEKFDKFKHLKTEAEMKASEDLKKHGTVVLTALGGILKKKGHHEAELKPLAQSHATKHKIPIKYLEFISDAIIHVLHSKHPGDFGADAQGAMTKALELFRNDIAAKYKELGFQG
- Protein +10 (g/mL Soy LPA, percent cells saved from apoptosis) [3]: 27.8%
- Increase with LPA [3]: +18.5%
- Protein Alone (0.01%), percent cells saved from apoptosis [3]: 9.3%
- enhancement of the anti-apoptotic activity of soy-LPA (more than additive protection) [3]: to a lesser degree
